Measurements as given in publication PMC5855685 (International Journal of Molecular Sciences, 2018).
Converted amounts (≈) assume the structure as drawn. Read-outs that look alike come from different tables or passages of the source.

Legend:
[1] = test system: Bacillus sp. (Gram+); assay: Antimicrobial activity, MIC on Müeller Hinton Agar; format: cell-based, Bacillus subtilis; settings: for MIC: read-out: MIC (minimal inhibitory concentration)
Protocol: (§1) The antimicrobial activity of studied compounds was tested against Escherichia coli, Bacillus subtilis, Staphylococcus epidermidis, Streptococcus pyogenes and antifungal activities against Candida sp. The microorganisms used in the experiment were obtained from the American Type Culture Collection-ATCC. Antimicrobial activity was measured as a minimal inhibitory concentration (MIC) with […] Hinton Agar (MHA). Serial two-fold dilutions of chemicals, ranging from 5000, 2500, 1250, 625 to 312, μg/mL were prepared. After the inoculation of microorganisms on MHA plates with certain tested chemical concentrations, the plates were incubated at 37 °C for bacteria and at 30 °C for Candida sp. for 24 and 48 h, respectively. Plates containing sterile water were used as controls. Minimum three repetitions were run for each assay. Ampicillin and kanamycin were used as a reference antibiotics.

[2] = test system: E. coli (Gram−); assay: Antimicrobial activity, MIC on Müeller Hinton Agar; format: cell-based, Escherichia coli; settings: for MIC: Escherichia coli, read-out: MIC (minimal inhibitory concentration)
Protocol: as §1

[3] = test system: Staphylococcus Epidermidis (Gram+); assay: Antimicrobial activity, MIC on Müeller Hinton Agar; format: cell-based; settings: for MIC: read-out: MIC (minimal inhibitory concentration)
Protocol: as §1

[4] = test system: Streptococcus Pyogenes (Gram+); assay: Antimicrobial activity, MIC on Müeller Hinton Agar; format: cell-based; settings: for MIC: read-out: MIC (minimal inhibitory concentration)
Protocol: as §1

[5] = test system: Candida sp.; assay: Antifungal activity, MIC on Müeller Hinton Agar; format: cell-based; settings: for MIC: Candida, read-out: MIC (minimal inhibitory concentration)
Protocol: as §1

[6] = FRAP (ferric reducing antioxidant power) assay; settings: Fe2+ equivalents
Protocol: Ferric reducing antioxidant activity was determined in FRAP assay. In order to prepare the FRAP reagent the following reagents: 0.3 M acetate buffer (pH 3.6), 10 mM TPTZ (in 40 mM HCl) and 20 mM FeCl3·6H2O (in water) were mixed in a volumetric ratio 10:1:1 directly before analyses. Then, the FRAP reagent (3 mL) was mixed with the tested substance (0.4 mL; final concentrations C = 2.5 and 5.0 μM). The absorbance was measured at 594 nm against blank (3 mL of FRAP and 0.4 mL of methanol) using an Agilent Carry 5000 spectrophotometer (CA, USA). Antioxidant activity was expressed as Fe^2+ equivalents [μM] using the calibration curve prepared over the range of 1000–20 μM concentration of FeSO4.

[7] = DPPH radical scavenging assay; settings: methanolic solution, 40 μM DPPH, 1 h, 23 °C, 516 nm
Protocol: Particular volumes of chlorogenic acid and chlorogenate solutions were added into the test tubes and diluted with methanol to obtain a series of solutions at the concentrations 10–0.1 μM (final volume 1 mL). Then, 2 mL of DPPH was added to each tube, vortexed and incubated in the darkness for 1 h at 23 °C. […] The absorbance of the mixture was measured at 516 nm against methanol as the blank using Agilent Carry 5000 spectrophotometer. The control sample—2 mL of DPPH solution and 1 mL of methanol. […] Then, the concentration of the tested substances was plotted against the % inhibition and the IC50 values were read from the scavenging curves. […] The IC50 parameter was also obtained for butylated hydroxyanisol (BHA), butylated hydroxytoluene (BHT) and L-ascorbic acid and compared with those ones calculated for studied compounds.

[8] = Pro-oxidant activity as rate of oxidation of trolox (H2O2 / horseradish peroxide); settings: 100 μM trolox, 50 μM H2O2, pH 7, 25 °C, 272 nm
Protocol: Chlorogenic acid and chlorogenates were also tested for their pro-oxidative effect on trolox oxidation. The radicals of chlorogenic acid and chlorogenates are produced in their reaction with H2O2 catalysed by horse radish peroxide. Then the phenoxyl radicals react with trolox which undergoes oxidation to trolox radicals and then trolox quinones. Whereas the phenoxyl radical are transformed to phenolic compounds. The maximum absorption for trolox quinone is 272 nm. This is a general procedure to study the pro-oxidant activity of phenolic compounds [54].
The pro-oxidant activity of the tested compounds were measured as the rate of oxidation of trolox according to the procedure described by Zeraik et al.. 100 μM trolox, 50 μM H2O2, 0.01 μM horseradish peroxide in phosphate buffer (pH = 7) and tested substances with a concentration from 0.05–0.35 μM were incubated at 25 °C. The measurement were conducted at 272 nm using an Agilent Carry 5000 spectrophotometer.

[9] = test system: multi-drug resistant Staphylococcus aureus; parameters: method as in PMID 26528244; settings: via inhibition of the activity of sortase A; cited from earlier work
[10] = test system: E. coli, Bacillus sp., Staphylococcus sp., Streptococcus pyogenes; assay: Antibacterial activity, MIC as summarised in the abstract; format: cell-based; settings: summary over tested bacteria (abstract)
Protocol: as §1

[11] = test system: Stenotrophomonas maltophilia, Bacillus careus, Enterococcus faecalis, Bacillus subtilis, Streptococcus pneumoniae; parameters: method as in PMID 23509719, PMID 21483731, PMID 22417510; settings: range over listed bacteria; cited from earlier work
[12] = test system: Hepatitis B virus; parameters: method as in PMID 19463857; settings: cited from earlier work

SMILES | FRAP Values C Fe2+ ([6]; Ccompound 2.5 µM) [µM] | MIC (minimal inhibitory concentration) ([1]; MHA plates, 37 °C, 24 h) | MIC (minimal inhibitory concentration) ([2]; MHA plates, 37 °C, 24 h) [mM] | MIC (minimal inhibitory concentration) ([3]; MHA plates, 37 °C, 24 h) | MIC (minimal inhibitory concentration) ([4]; MHA plates, 37 °C, 24 h) | MIC (minimal inhibitory concentration) ([5]; MHA plates, 30 °C, 48 h) | EC50 [7] [µM] | FRAP Values C Fe2+ ([6]; Ccompound 5 µM) [µM] | other results
CC1(C)S[C@@H]2[C@H](NC(=O)[C@H](N)c3ccccc3)C(=O)N2[C@H]1C(=O)O [Ampicillin, reference compound] |  |  |  |  |  |  |  |  | MIC ([1]; MHA plates, 37 °C, 24 h): 0.57 mM; MIC ([2]; MHA plates, 37 °C, 24 h): 0.43 mM; MIC ([3]; MHA plates, 37 °C, 24 h): 0.57 mM; MIC ([4]; MHA plates, 37 °C, 24 h): 0.57 mM; MIC ([5]; 48 h, MHA plates, 30 °C, 48 h): 0.57 mM
O=C(/C=C/c1ccc(O)c(O)c1)O[C@@H]1C[C@](O)(C(=O)[O-])C[C@@H](O)[C@H]1O.[Cs+] [Cs 5-CQA, caesium chlorogenate] | 80.47 ± 5.68 | ˃4.79 mM | 4.79 | ˃4.79 mM | ˃4.79 mM | ˃9.58 mM | 5.89 ± 1.57 |  | 
O=C(/C=C/c1ccc(O)c(O)c1)O[C@@H]1C[C@](O)(C(=O)[O-])C[C@@H](O)[C@H]1O.[Na+] [Na 5-CQA, sodium chlorogenate] | 103.08 ± 2.79 | ˃6.20 mM | 6.20 | ˃6.20 mM | ˃6.20 mM | ˃12.40 mM | 4.5 ± 0.36 | 141.13 ± 5.78 | time after which the oxidation of trolox finished ([8]; compound 0.35 μM): 20 min
O=C(/C=C/c1ccc(O)c(O)c1)O[C@@H]1C[C@](O)(C(=O)[O-])C[C@@H](O)[C@H]1O.[Li+] [Li 5-CQA, lithium chlorogenate] | 78.93 ± 4.23 | ˃6.46 mM | 6.46 | ˃6.46 mM | ˃6.46 mM | ˃12.91 mM | 5.28 ± 0.375 |  | time after which the oxidation of trolox finished ([8]; compound 0.35 μM): 20 min
Cc1c(C)c2c(c(C)c1O)CCC(C)(C(=O)O)O2 (stereo not shown) [Trolox, reference compound] |  |  |  |  |  |  | 8.25 ± 0.75 | 70.85 ± 3.57 | 
O=C(/C=C/c1ccc(O)c(O)c1)O[C@@H]1C[C@](O)(C(=O)[O-])C[C@@H](O)[C@H]1O.[Rb+] [Rb 5-CQA, rubidium chlorogenate] | 86.70 ± 2.86 | 5.27 mM | 2.63 | 5.27 mM | 2.63 mM | 5.27 mM | 5.4 ± 0.68 |  | time after which the oxidation of trolox finished ([8]; compound 0.25 μM): 40 min
O=C(/C=C/c1ccc(O)c(O)c1)O[C@@H]1C[C@](O)(C(=O)[O-])C[C@@H](O)[C@H]1O.[K+] [K 5-CQA, potassium chlorogenate] | 99.89 ± 7.05 | 5.96 mM | 5.96 | 2.98 mM | ˃5.96 mM | 5.96 mM | 5.32 ± 0.49 | 132.00 ± 6.07 | time after which the oxidation of trolox finished ([8]; compound 0.25 μM): 40 min; time after which the oxidation of trolox finished ([8]; compound 0.35 μM): 20 min
O=C1O[C@H]([C@@H](O)CO)C(O)=C1O [L-ascorbic acid, reference compound] |  |  |  |  |  |  | 10.9 ± 0.53 | 81.70 ± 4.23 | 
NC[C@H]1O[C@H](O[C@H]2[C@H](O)[C@@H](O[C@H]3O[C@H](CO)[C@@H](O)[C@H](N)[C@H]3O)[C@H](N)C[C@@H]2N)[C@H](O)[C@@H](O)[C@@H]1O [Kanamycin, reference compound] |  | 0.21 mM (≈ 102 µg/mL) | 0.21 (≈ 102 µg/mL) | 0.21 mM (≈ 102 µg/mL) | 0.21 mM (≈ 102 µg/mL) | 0.41 mM (≈ 199 µg/mL) |  |  | 
Cc1cc(C(C)(C)C)c(O)c(C(C)(C)C)c1 [BHT, butylated hydroxytoluene, reference compound] |  |  |  |  |  |  | 52.8 ± 2.83 | 69.66 ± 5.54 | 
O=C(/C=C/c1ccc(O)c(O)c1)O[C@@H]1C[C@](O)(C(=O)O)C[C@@H](O)[C@H]1O [5-CQA, 5-O-caffeoylquinic acid, reference compound] |  |  |  |  |  | > 14.11 mM |  |  | IC50 [9]: 33.86 ± 5.55 µg/mL (≈ 95.6 µM); MIC [10]: 7.06 mM (≈ 2500 µg/mL); MIC [11]: 8 to 64 µg/mL; MIC ([1]; MHA plates, 37 °C, 24 h): > 7.06 mM; MIC ([1]; value in brackets): > 2500 µg/mL; MIC ([2]; MHA plates, 37 °C, 24 h): 7.06 mM; MIC ([2]; value in brackets): 2500 µg/mL; MIC ([3]; MHA plates, 37 °C, 24 h): > 7.06 mM; MIC ([3]; value in brackets): > 2500 µg/mL; MIC ([4]; MHA plates, 37 °C, 24 h): > 7.06 mM; MIC ([4]; value in brackets): > 2500 µg/mL; MIC ([5]; 48 h, MHA plates, 30 °C, 48 h): 14.1 mM; MIC ([5]; value in brackets): > 5000 µg/mL; IC50 against Hepatitis B virus [12]: 0.4 µg/mL (≈ 1.13 µM)
